In patent US7906488B2, “Sphingolipids in treatment and prevention of steatosis and of steatosis or of hepatotoxicity and its sequelae” (Nederlandse Organisatie Voor …, priority 2004, dated 2011):

Assays:
[1] = tested on: galactosamine-injured primary rat hepatocytes; settings: cited from earlier work
[2] = tested on: APOE*3Leiden mice; test: Effect of dietary sphingolipids on plasma C and TG levels (0.1, 0.2, 0.4% in diet); type: in vivo; settings: 0.4% sphingolipid in diet, compared with 0.2%
Description: Sphingolipids: The three sphingolipids that represent the most abundant natural complex sphingolipid classes and the three of the simplest natural sphingolipids, the sphingoid bases that can be formed by enzymatic breakdown of complex sphingolipids in the intestine were used. Sphingomyelin (mainly N-palmitoyl-sphingosine-1-phosphocholine) from egg was obtained from Larodan Fine Chemicals (Stockholm, Sweden). Yeast-derived (semi)synthetic ceramide III (N-stearoyl-phytosphingosine), cerebroside (N-stearoyl-phytosphingosine-1-glucose) and phytosphingosine (PS) were from Cosmoferm BV (Delft, the Netherlands). Sphinganine and sphingosine were from Avanti Polar Lipids (Albaster, Ala.). Animals and diets: Heterozygous female APOE*3Leiden transgenic mice (Van Vlijmen et al. 1994. J. Clin. Invest 93:1403-1410.) (6 months old) were fed a Western-type diet (Hope Farms, Woerden, the Netherlands) containing 15% cocoa butter, 0.25% cholesterol, 1% corn oil, 40.5% sucrose, 20% acid casein, 10% corn starch and 5.95% cellulose (all w/w) for 5 weeks. The mice were allowed free access to food and water. Body weight and food intake were monitored weekly. In the first experiment (FIG. 2), the mice were randomized after these 5 weeks into 7 groups (n=6), based on plasma cholesterol, triglycerides, and body weight. Subsequently, the mice were fed for three weeks the same diet without or with 0.1% (w/w) phytosphingosine (PS), sphingosine, sphinganine, cerebroside, ceramide III, or sphingomyelin. […]
Plasma parameters: Tail blood samples were collected in EDTA-coated cups, or in paraoxon-coated capillaries to prevent lipolysis as described in Zambon et al. 1993 (Zambon et al. 1993. J. Lipid Res. 34:1021-1028). Plasma lipid parameters were determined using commercial kits for total cholesterol (C) Chol R1 from Roche Diagnostics, Mannheim, Germany), non-esterified free fatty acids (FFA) (NEFA-C; Wako chemicals, Neuss, Germany), Total triglycerides (TG) (Triglyceride GPO-Trinder; Sigma, St. Louis, Mo.), β-hydroxybutyrate (β-HB; Sigma) and ALAT (Reflotron GPT; Roche). Serum amyloid A (SAA) was measured by ELISA (Biosource, Nivelles, Belgium) and fibrinogen by sandwich ELISA, as described in Koopman et al., 2005 (Koopman et al. 2005. Fibrinol Proteol 11:19). […] Hepatic VLDL-TG production: The rate of hepatic VLDL-TG production, de novo apoB secretion, and VLDL composition were determined in overnight-fasted mice. […] After 30 min, the animals received a Triton WR1339 injection (Tyloxapol, Sigma; 500 mg/kg body weight in 100 μl saline) to prevent systemic lipolysis of newly-secreted hepatic VLDL-TG (Aalto-Setala et al. 1992. J. Clin. Invest 90:1889-1900.27) Blood samples were drawn at 0, 15, 30, 60, and 90 min after Triton WR1339 injection and plasma TG concentrations were determined. […]

[3] = tested on: rats; settings: administration to the food of rats; cited from earlier work
[4] = tested on: C57bI mice; settings: intraperitoneal injection; cited from earlier work

Row | Compound | Plasma C [2] | also measured
1 | CCCCCCCCC/C=C\CC/C=C/[C@@H](O)[C@H](CO[C@@H]1O[C@H](CO)[C@@H](O)[C@H](O)[C@H]1O)NC(=O)CCCCCCCCCCCCCCC [LCC, 1-O-(β-D-glucopyranosyl)-(2S,3R,4E,8Z)-2-N-palmityloctadecasphinga-4,8-diene] |  | Release into the culture medium of GPT and SDH [1]: reduce the release
2 | CCCCCCCCCCCCCCCCCC(=O)N[C@@H](CO)[C@H](O)[C@H](O)CCCCCCCCCCCCCC [ceramide III, N-stearoyl-phytosphingosine] | decreased even more | 
3 | CCCCCCCCCCCCC/C=C/[C@@H](O)[C@H](COP(=O)([O-])OCC[N+](C)(C)C)NC(=O)CCCCCCCCCCCCCCC [sphingomyelin, N-palmitoyl-sphingosine-1-phosphocholine] | decreased even more | Chances of occurrence of malignant, chemically induced colon cancer [3]: significantly decrease
4 | CCCCCCCCCCCCC/C=C/[C@@H](O)[C@@H](N)CO [sphingosine] | decreased even more | 
5 | glucocerebroside |  | Liver fat content [4]: reduced
